Assay results as given in patent US8841301B2, “Selective NR2B antagonists” (Bristol-Myers Squibb Company, priority 2011, dated 2014).
Like-named read-outs stand apart in the source and are kept apart here.

Target: hNR2B (Homo sapiens, UniProt Q05586+Q13224)
Assay: Electrophysiology NMDA receptor experiments: two electrode voltage-clamp in Xenopus laevis oocytes expressing GluN1/GluN2 subunits
Type: cell-based
Settings: oocytes voltage clamped at −40 mV, 50 μM glutamate, 30 μM glycine
Procedure: Electrophysiology NMDA Receptor Experiments.
Stage V and VI oocytes were surgically removed from the ovaries of large, well-fed and healthy Xenopus laevis anesthetized with 3-amino-benzoic acid ethyl ester (3 gm/l). Clusters of isolated oocytes were incubated with 292 U/ml Worthington (Freehold, N.J.) type IV collagenase or 1.3 mg/ml collagenase (Life Technologies, Gaithersburg, Md.; 17018-029) for 2 hr in Ca^2+-free solution comprised of (in mM) 115 NaCl, 2.5 KCl, and 10 HEPES, pH 7.5, with slow agitation to remove the follicular cell layer. Oocytes were then washed in the same solution supplemented with 1.8 mM CaCl2 and maintained in Barth's solution comprised of (in mM): 88 NaCl, 1 KCl, 2.4 NaHCO3, 10 HEPES, 0.82 MgSO4, 0.33 Ca(NO3)2, and 0.91 CaCl2 and supplemented with 100 μg/ml gentamycin, 10 μg/ml streptomycin, and 10 μg/ml penicillin. Oocytes were manually defolliculated and injected within 24 hrs of isolation with 3-5 ng of human GluN1 subunit cRNA and 7-10 ng of human GluN2 cRNA subunit in a 50 nl volume, and incubated in Barth's solution at 18° C. for 2-7 d. Glass injection pipettes had tip sizes ranging from 10-20 microns, and were backfilled with mineral oil. cRNA was synthesized from linearized template cDNA for rat glutamate receptor subunits according to manufacturer specifications (Ambion).
Two electrode voltage-clamp recordings were made 2-7 days post-injection. Oocytes were placed in a dual-track plexiglass recording chamber with a single perfusion line that splits in a Y-configuration to perfuse two oocytes. Dual recordings were made at room temperature (23° C.) using two Warner OC725B two-electrode voltage clamp amplifiers, arranged as recommended by the manufacturer. Glass microelectrodes (1-10 Megaohms) were filled with 300 mM KCl (voltage electrode) or 3 M KCl (current electrode). The bath clamps communicated across silver chloride wires placed into each side of the recording chamber, both of which were assumed to be at a reference potential of 0 mV. Oocytes were perfused with a solution comprised of (in mM) 90 NaCl, 1 KCl, 10 HEPES, […] and 0.5 BaCl2; pH 7.4, adjusted by addition of NaOH. Oocytes were recorded under voltage clamp at −40 mV. Final concentrations for glutamate and glycine were 50 μM and 30 μM, respectively. Concentration-response curves for experimental compounds were obtained by applying in successive fashion maximal glutamate/glycine, followed by glutamate/glycine plus variable concentrations of experimental compounds. Dose response curves consisting of four to eight concentrations were obtained in this manner. The baseline leak current at −40 mV was measured before and after recording, and the full recording linearly corrected for any change in leak current. The level of inhibition by applied experimental compounds was expressed as a percent of the initial glutamate response, and averaged together across oocytes from multiple experiments. Results were pooled, and the average percent responses at antagonist concentrations were fit by the equation, Percent Response=(100−minimum)/(1+([conc]/IC50)^nH)+minimum where minimum is the residual percent response in saturating concentration of the experimental compounds, IC50 is the concentration of antagonist that causes half of the achievable inhibition, and nH is a slope factor describing steepness of the inhibition curve. […]
For NMDA receptor subtype selectivity experiments human GluN1/GluN2A, GluN1/GluN2C, and GluN1/GluN2D cRNAs were expressed in Xenopus laevis as described above. Here, 10 μM concentrations of the antagonist was perfused with 50 μM glutamate and 30 μM glycine onto the oocyte for two min and the remaining current in the presence of the antagonist was compared to the maximal current obtained with 50 μM glutamate and 30 μM glycine alone (defined as 100%). When IC50 determinations were made against other NMDA receptor subtypes the protocol as described above was followed. […]

Chain of hNR2B (Q13224 27-1484, other chains not shown): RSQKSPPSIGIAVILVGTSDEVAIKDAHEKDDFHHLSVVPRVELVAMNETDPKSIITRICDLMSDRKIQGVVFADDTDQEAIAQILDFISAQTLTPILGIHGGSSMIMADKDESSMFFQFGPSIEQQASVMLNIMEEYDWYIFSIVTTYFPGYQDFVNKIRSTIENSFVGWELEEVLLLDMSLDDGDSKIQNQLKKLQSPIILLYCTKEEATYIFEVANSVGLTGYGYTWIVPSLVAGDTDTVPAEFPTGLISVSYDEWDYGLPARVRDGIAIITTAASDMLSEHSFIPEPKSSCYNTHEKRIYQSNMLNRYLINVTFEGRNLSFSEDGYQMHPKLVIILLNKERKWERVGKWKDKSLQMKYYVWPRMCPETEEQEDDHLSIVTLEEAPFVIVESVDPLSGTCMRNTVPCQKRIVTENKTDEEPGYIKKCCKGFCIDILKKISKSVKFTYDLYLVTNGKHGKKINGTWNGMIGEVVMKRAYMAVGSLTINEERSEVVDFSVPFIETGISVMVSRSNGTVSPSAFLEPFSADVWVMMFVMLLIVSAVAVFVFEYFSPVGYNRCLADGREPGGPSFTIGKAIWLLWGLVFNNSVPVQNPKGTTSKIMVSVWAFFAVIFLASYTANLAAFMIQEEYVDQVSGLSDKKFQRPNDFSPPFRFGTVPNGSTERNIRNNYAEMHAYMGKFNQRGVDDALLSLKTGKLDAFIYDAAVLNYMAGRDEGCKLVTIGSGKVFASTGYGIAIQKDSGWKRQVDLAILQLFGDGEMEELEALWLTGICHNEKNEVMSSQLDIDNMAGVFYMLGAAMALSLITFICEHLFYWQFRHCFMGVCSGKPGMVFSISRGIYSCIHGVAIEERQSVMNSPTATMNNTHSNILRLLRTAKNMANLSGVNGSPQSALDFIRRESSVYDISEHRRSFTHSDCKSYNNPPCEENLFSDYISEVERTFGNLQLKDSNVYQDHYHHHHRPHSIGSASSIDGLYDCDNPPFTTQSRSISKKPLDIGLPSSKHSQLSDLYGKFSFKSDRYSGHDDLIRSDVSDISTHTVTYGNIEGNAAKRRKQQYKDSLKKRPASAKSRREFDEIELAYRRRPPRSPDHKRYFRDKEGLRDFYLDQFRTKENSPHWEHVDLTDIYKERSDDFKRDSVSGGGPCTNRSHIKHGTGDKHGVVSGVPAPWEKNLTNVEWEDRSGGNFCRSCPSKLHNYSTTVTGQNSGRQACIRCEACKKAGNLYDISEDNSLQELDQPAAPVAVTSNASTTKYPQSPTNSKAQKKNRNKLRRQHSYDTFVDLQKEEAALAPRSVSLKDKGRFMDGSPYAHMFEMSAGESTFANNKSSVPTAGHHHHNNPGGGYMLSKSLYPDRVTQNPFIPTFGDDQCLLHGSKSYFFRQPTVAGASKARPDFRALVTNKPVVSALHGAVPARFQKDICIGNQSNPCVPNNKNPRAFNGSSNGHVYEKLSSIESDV

| SMILES | IC50 (read-out: Rating (hNR2B IC50)) | IC50 (read-out: hNR2B IC50) |
| --- | --- | --- |
| O=c1ccc2cc(OCc3ccc(Nc4ccc(OC(F)F)cc4)nc3)ccc2[nH]1 [Example 3] | < 200 nM |  |
| O=C1CCc2cc(OCc3ccc(Nc4ccc(OC(F)(F)F)cc4)nc3)cc(F)c2N1 [Example 6] | 1000 to 10000 nM |  |
| O=c1ccc2cc(OCc3ccc(NCc4ccc(F)cc4)nc3)ccc2[nH]1 [Example 7] | < 200 nM |  |
| Oc1ccc(OCc2ccc(Nc3ccc(OC(F)F)cc3)nc2)cc1 [Example 10] | < 200 nM | 13 nM |
| Oc1ccc(OCc2cnc(Nc3ccc(Cl)cc3)nc2)cc1 [Example 12, 4-((2-(4-chlorophenylamino)pyrimidin-5-yl)methoxy)phenol] |  | 394 nM |
| O=c1ccc2cc(OCc3cnc(Nc4ccc(Cl)cc4)nc3)ccc2[nH]1 [Example 14, 6-((2-(4-chlorophenylamino)pyrimidin-5-yl)methoxy)quinolin-2(1H)-one] |  | 64 nM |
| FC(F)(F)Oc1ccc(Nc2ncc(COc3ccc4[nH]nc(C(F)(F)F)c4c3)cn2)cc1 [Example 15, N-(4-(trifluoromethoxy)phenyl)-5-(((3-(trifluoromethyl)-1H-indazol-5-yl)oxy)methyl)pyrimidin-2-amine] |  | > 3000 nM |
| O=c1[nH]c2ccc(OCc3cnc(Nc4ccc(OC(F)F)cc4)nc3)cc2o1 [Example 16, 6-((2-((4-(difluoromethoxy)phenyl)amino)pyrimidin-5-yl)methoxy)benzo[d]oxazol-2(3H)-one] |  | 14 nM |
| Nc1ncc(OCc2cnc(Nc3ccc(OC(F)F)cc3)nc2)cn1 [Example 17, 5-((2-aminopyrimidin-5-yloxy)methyl)-N-(4-(difluoromethoxy)phenyl)pyrimidin-2-amine] |  | > 1000 nM |
| COc1nc(Nc2ccc(OC(F)F)cc2)ncc1COc1ccc2[nH]c(=O)ccc2c1 [Example 18, 6-((2-((4-(difluoromethoxy)phenyl)amino)-4-methoxypyrimidin-5-yl)methoxy)quinolin-2(1H)-one] |  | 5 nM |
| O=c1ccc2cc(OCc3cnc(Nc4ccc(OC(F)F)cc4)nc3)ccc2[nH]1 [Example 22] | < 200 nM |  |
| O=c1ccc2cc(OCc3cnc(Nc4ccc(OC(F)(F)F)cc4)nc3)ccc2[nH]1 [Example 23] | < 200 nM |  |
| COc1ccc(Nc2ncc(COc3ccc4[nH]c(=O)ccc4c3)cn2)cc1 [Example 24] | < 200 nM | 90 nM |
| Cc1ccc(Nc2ncc(COc3ccc4[nH]c(=O)ccc4c3)cn2)cc1 [Example 25] | < 200 nM | 97 nM |
| O=c1ccc2cc(OCc3cnc(NCc4ccc(F)cc4)nc3)ccc2[nH]1 [Example 27] | < 200 nM | 62 nM |
| O=c1ccc2cc(OCc3cnc(Nc4ccc(F)c(F)c4)nc3)ccc2[nH]1 [Example 31] | < 200 nM |  |

| SMILES | IC50 (read-out: Rating (hNR2B IC50)) | IC50 (read-out: hNR2B IC50) |
| --- | --- | --- |
| O=c1ccc2cc(OCc3cnc(Nc4ccc(F)c(Cl)c4)nc3)ccc2[nH]1 [Example 32] | 201 to 1000 nM |  |
| COc1cc(Nc2ncc(COc3ccc4[nH]c(=O)ccc4c3)cn2)ccc1F [Example 33] | 1000 to 10000 nM |  |
| O=c1ccc2cc(OCc3cnc(Nc4ccc(OC(F)F)c(Cl)c4)nc3)ccc2[nH]1 [Example 35] | < 200 nM |  |
| COc1ccc(Nc2ncc(COc3ccc4[nH]c(=O)ccc4c3)cn2)cc1Cl [Example 36] | < 200 nM |  |
| O=c1ccc2cc(OCc3cnc(Nc4ccc(OC(F)F)c(F)c4)nc3)ccc2[nH]1 [Example 37] | < 200 nM |  |
| Cc1cc(Nc2ncc(COc3ccc4[nH]c(=O)ccc4c3)cn2)ccc1OC(F)F [Example 38] | < 200 nM |  |
| CS(=O)(=O)c1ccc(Nc2ncc(COc3ccc4[nH]c(=O)ccc4c3)cn2)cc1 [Example 40] | < 200 nM |  |
| Cc1ccc(Nc2ncc(COc3ccc4[nH]c(=O)ccc4c3)cn2)cc1C [Example 41] | < 200 nM |  |
| Cc1ccc(Nc2ncc(COc3ccc4[nH]c(=O)ccc4c3)cn2)cc1Cl [Example 42] | < 200 nM |  |
| COc1ccc(Nc2ncc(COc3ccc4[nH]c(=O)ccc4c3)cn2)cc1C [Example 46] | < 200 nM |  |
| COc1ccc(Nc2ncc(COc3ccc4[nH]c(=O)ccc4c3)cn2)cn1 [Example 48] | < 200 nM |  |
| COc1ncc(Nc2ncc(COc3ccc4[nH]c(=O)ccc4c3)cn2)cc1C [Example 49] | < 200 nM |  |
| O=c1ccc2cc(OCc3cnc(Nc4ccc(OC(F)F)nc4)nc3)ccc2[nH]1 [Example 50] | < 200 nM |  |
| O=c1ccc2cc(OCc3cnc(Nc4ccc(OC(F)F)cc4)nc3C(F)(F)F)ccc2[nH]1 [Example 53] | < 200 nM |  |
| O=c1ccc2cc(OCc3cnc(Nc4ccc(Cl)cc4)nc3C(F)(F)F)ccc2[nH]1 [Example 54] | < 200 nM |  |

The remaining lines, values ahead:

| IC50 (read-out: Rating (hNR2B IC50)) | IC50 (read-out: hNR2B IC50) | SMILES |
| --- | --- | --- |
| < 200 nM | 87 nM | O=c1ccc2cc(OCc3ccc(NCc4ccc(Cl)cc4)nc3)ccc2[nH]1 [Example 1, 6-((6-(4-chlorobenzylamino)pyridin-3-yl)methoxy)quinolin-2(1H)-one] |
| 1000 to 10000 nM | > 3000 nM | O=c1ccc2cc(OCc3ccc(NCc4ccc(Cl)c(Cl)c4)nc3)ccc2[nH]1 [Example 2, 6-((6-(3,4-dichlorobenzylamino)pyridin-3-yl)methoxy)quinolin-2(1H)-one] |
| > 10000 nM |  | O=c1ccc2cc(OCc3ccc(NCc4ccc(OC(F)F)cc4)nc3)ccc2[nH]1 [Example 4] |
| 201 to 1000 nM |  | O=c1ccc2cc(OCc3ccc(NCc4ccc(F)c(F)c4)nc3)ccc2[nH]1 [Example 5] |
| 1000 to 10000 nM |  | O=c1ccc2cc(OCc3ccc(NCc4cccc(Cl)c4)nc3)ccc2[nH]1 [Example 8] |
| < 200 nM |  | O=c1ccc2cc(OCc3ccc(Nc4ccc(OC(F)(F)F)cc4)nc3)ccc2[nH]1 [Example 9] |
| < 200 nM |  | O=c1ccc2cc(OCc3cccc(Nc4ccc(Cl)cc4)n3)ccc2[nH]1 [Example 11] |
|  | 395 nM | Oc1ccc(OCc2cnc(Nc3ccc(Cl)c(Cl)c3)nc2)cc1 [Example 13, 4-((2-(3,4-dichlorophenylamino)pyrimidin-5-yl)methoxy)phenol] |
| < 200 nM |  | O=c1ccc2cc(OCc3cnc(NCc4ccc(Cl)cc4)nc3)ccc2[nH]1 [Example 19] |
| < 200 nM |  | O=c1ccc2cc(OCc3cnc(Nc4ccc(Cl)c(Cl)c4)nc3)ccc2[nH]1 [Example 20] |
| > 10000 nM |  | O=c1ccc2cc(OCc3cnc(NCc4ccc(Cl)c(Cl)c4)nc3)ccc2[nH]1 [Example 21] |
| < 200 nM | 139 nM | O=c1ccc2cc(OCc3cnc(NCc4ccc(F)c(F)c4)nc3)ccc2[nH]1 [Example 26] |
| < 200 nM | 101 nM | Cc1ccc(Nc2ncc(COc3ccc4[nH]c(=O)ccc4c3)cn2)cc1F [Example 28] |
| < 200 nM |  | COc1ccc(Nc2ncc(COc3ccc4[nH]c(=O)ccc4c3)cn2)cc1F [Example 29] |
| < 200 nM |  | O=c1ccc2cc(OCc3cnc(Nc4ccc(F)cc4)nc3)ccc2[nH]1 [Example 30] |
| < 200 nM |  | CCc1ccc(Nc2ncc(COc3ccc4[nH]c(=O)ccc4c3)cn2)cc1F [Example 39] |
| < 200 nM |  | CCCc1ccc(Nc2ncc(COc3ccc4[nH]c(=O)ccc4c3)cn2)cc1 [Example 43] |
| < 200 nM |  | CC(C)c1ccc(Nc2ncc(COc3ccc4[nH]c(=O)ccc4c3)cn2)cc1 [Example 44] |
| < 200 nM |  | CC(C)(C)c1ccc(Nc2ncc(COc3ccc4[nH]c(=O)ccc4c3)cn2)cc1 [Example 47] |
| < 200 nM |  | Cc1nc(Nc2ccc(Cl)cc2)ncc1COc1ccc2[nH]c(=O)ccc2c1 [Example 51] |
| < 200 nM |  | Cc1nc(Nc2ccc(OC(F)F)cc2)ncc1COc1ccc2[nH]c(=O)ccc2c1 [Example 52] |
| < 200 nM |  | CN(C)c1nc(Nc2ccc(OC(F)F)cc2)ncc1COc1ccc2[nH]c(=O)ccc2c1 [Example 55] |
| < 200 nM |  | FC(F)(F)Oc1ccc(Nc2ncc(COc3ccc4[nH]ncc4c3)cn2)cc1 [Example 56] |
